Counter-ions that a name gives are not always drawn. Like-named read-outs stand apart in the source and are kept apart here. Ends that are not written are not given here.

In data set [1] the target is T1, human M3 muscarinic acetylcholine receptor (Homo sapiens, UniProt P20309).
T1 construct: host or cells: CHO-K1 cells, stably transfected
In words: R-CEPIAer ER calcium assay of Gq-coupled receptor activation, M3-transfected CHO-K1 cells. The settings on record: for Hill slope of inhibition curve, M3 receptor: Hill equation fit. In kind it is cell-based. As to the method: The binding of antagonists to Gq-coupled receptors was determined by measuring IP3-mediated calcium depletion from the endoplasmic reticulum (ER). This was accomplished using CHO-K1 cells stably transfected with human M3 muscarinic acetylcholine receptor (CEM3000000, cDNA Resource Center, Bloomsburg University) and R-CEPIAer, a low affinity ER-targeted calcium indicator fluorescent protein ([Suzuki et al., 2014]). R-CEPIAer reporting of ER calcium concentration was assessed using 564 nm excitation light (>590 long-pass emission) at 20 second intervals on a Nikon swept-field confocal microscope using slit-scan mode, 2x2 Binning, and 100 millisecond frames. F/Fmax was fluorescence intensity normalized to maximal fluorescence intensity during the experiment. The response of cells to Gq-coupled receptor agonist were measured as the change in F/Fmax (ΔF/Fmax) from preagonist value to fluorescence minimum during agonist application (that occurs by IP3-mediated ER calcium depletion). […] Perfusion of each agonist application was for 2 min, while the antagonist overlapped and preceded the second agonist application by 3 min. […] IC50 was calculated by assaying fractional inhibition using a dose-response of antagonist concentrations (i.e. Figure 1D ). For assays of other receptors such as the M1 and M5 muscarinic receptors, H1 histamine and P2Y1 purinergic receptors, these receptors were transiently co-transfected with the pCMV R-CEPIAer plasmid (a gift from Masamitsu Iino (Addgene plasmid # 58216; http://n2t.net/addgene:58216; RRID : Addgene_58216)) into CHO cells using polyethylenimine [according to previous methods ([Longo et al., 2013])]. IC50 and EC50 values were estimated by fitting the dose-response relationship to a Hill equation.
To obtain a pKB using a Schild analysis ([Arunlakshana and Schild, 1959]), the acetylcholine EC50 was measured in the absence of UCL1684 and EC50′ measured in the presence of increasing concentrations of UCL1684. These values were used to calculate a dose ratio (DR = EC50′/EC50) for each UCL1684 concentration. The log(DR − 1) was plotted vs. log UCL1684 concentrations and fit to a linear equation where the theoretical X-intercept was used to estimate a pKB.

A further data set deals with mouse trachea. The data set is described as follows: Isometric tracheal tension measurement (organ bath). The settings on record: for IC50: cumulative concentrations, Hill function, read-out: IC50, relaxation of carbachol-precontracted trachea; for Relaxation response of trachea: TrpM channel blocker. On the procedure: Mice used in these studies were BALB/C mice from Jackson Labs. All animal procedures were reviewed and approved by the University of Texas Health Science Center at San Antonio Institutional Animal Care and Use Committee. For tracheal constriction studies, animals were deeply anesthetized with isoflurane and then sacrificed by cervical dislocation. Isometric tracheal contraction measurements were performed as previously described ([Semenov et al., 2012]). Trachea were removed and surrounding tissues dissected in ice-cold physiologic saline solution (PSS) consisting of 119 mM NaCl, 4.7 mM KCl, 2.0 mM CaCl2, 1.0 mM KH2PO4, 1.17 mM MgSO4, 18 mM NaHCO3, 0.026 mM EDTA, 11 mM glucose, and 12.5 mM sucrose. Trachea were cut below the pharynx and above the primary bronchus bifurcation. Two metal wires, attached to a force transducer and micrometer (Radnoti, LLC), were threaded into the lumen of the trachea. Trachea were placed into an oxygenated organ bath (95% O2, 5% CO2), at 37°C, pH 7.35 (after bubbling with 95% O2–5% CO2). Tracheal resting tension was readjusted to 1 gram over 1 h and then challenged with 67 mM potassium PSS with NaCl adjusted to 56.7 mM to maintain proper osmolarity (KPS). Trachea were challenged two or more times until reproducible contractile responses were achieved. All subsequent experimental drug responses were normalized to the KPS response. Bladder measurements were conducted in a similar manner as trachea with identical solutions. The bladder was excised and formed into a ring by cutting anterior and posterior portions before mounting on metal wires for force measurements. For the aorta preparation, the ascending thoracic aorta was excised and cut into 2–3 mm sections before mounting on wires for force measurements.

In another data set the test system is SK potassium channels. The settings on record: cited from earlier work.
The next data set relates to CNG1. More on the design: method as in Rosenbaum et al., 2004. The settings on record: ref Rosenbaum et al., 2004; read-out: IC50, block of CNG1 channels; cited from earlier work.
The next data set concerns CNG2. Details: method as in Rosenbaum et al., 2004. The settings on record: ref Rosenbaum et al., 2004; read-out: IC50, block of CNG2 channels; cited from earlier work.
For another data set, the system named is mouse. More on the design: method as in Gamboa-Vujicic et al., 1993. As to conditions: ref Gamboa-Vujicic et al., 1993, cited from earlier work.
Where [2] appears, read: 5 μM antagonist, 0.5 μM carbachol, 0 = none, 1 = complete inhibition.

T1 sequence (P20309 whole entry): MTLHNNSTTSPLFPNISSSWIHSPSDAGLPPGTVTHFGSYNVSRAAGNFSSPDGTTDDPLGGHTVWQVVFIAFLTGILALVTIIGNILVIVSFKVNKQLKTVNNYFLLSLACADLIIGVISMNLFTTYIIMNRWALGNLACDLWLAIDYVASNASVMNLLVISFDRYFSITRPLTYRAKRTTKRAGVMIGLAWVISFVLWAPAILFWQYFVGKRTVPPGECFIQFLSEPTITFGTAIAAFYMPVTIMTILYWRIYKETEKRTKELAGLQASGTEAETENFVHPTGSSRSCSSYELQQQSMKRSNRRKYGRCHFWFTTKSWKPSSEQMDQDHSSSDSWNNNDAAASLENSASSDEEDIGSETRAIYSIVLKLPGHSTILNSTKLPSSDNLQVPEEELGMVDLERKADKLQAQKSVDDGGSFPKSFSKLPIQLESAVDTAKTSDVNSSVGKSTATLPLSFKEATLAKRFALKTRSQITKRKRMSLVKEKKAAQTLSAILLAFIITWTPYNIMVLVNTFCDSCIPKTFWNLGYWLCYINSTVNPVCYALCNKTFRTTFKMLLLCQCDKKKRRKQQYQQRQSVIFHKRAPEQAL

As to `Cl.c1ccc2c(c1)CCC[C@H]2Nc1nc2ccccc2[nH]1` [NS8593, N-[(1R)-1,2,3,4-Tetrahydro-1-naphthalenyl]-1H-benzimidazol-2-amine hydrochloride], the IC50 (commonly the concentration that inhibits the measured activity by half) in data set [1] came out at 83 µM; in the data set with mouse trachea (0.5 μM carbachol), 31.5 ± 2 µM; with mouse trachea (Mus musculus, 0.5 μM carbachol), 31 µM. The “Hill slope of inhibition curve, M3 receptor” value (from here on “Hill slope of inhibition curve”) in data set [1] (0.5 μM carbachol) worked out at 1.7 ± 0.35. Also, the “Effect on M3 carbachol response” value in data set [1] (10 μM antagonist, 0.5 μM carbachol) was “undetectable”. The “Fractional inhibition of second carbachol response” value (“Fractional inhibition” for short) in data set [1] (100 μM antagonist, 0.5 μM carbachol) is reported as 0.60 ± 0.03. Further, the “Relaxation of precontracted trachea” value in the data set on mouse trachea (76.8 μM (highest concentration), 0.5 μM carbachol) is reported as “complete relaxation”.

For the compound `c1ccc2c(c1)c1cc[n+]2CCCCC[n+]2ccc(c3ccccc32)NCCCCCN1` [UCL 1848, 8,14-Diaza-1,7(1,4)-diquinolinacyclotetradecaphane trifluoroacetate salt], the IC50 was 1 µM in data set [1]; 0.002 µM in the data set on SK potassium channels (effects on SK-dependent fast-afterhyperpolarizing currents, ref Campos Rosa et al., 1996, Chen et al., 2000, Blank et al., 2004, read-out: IC50, SK potassium channels); 0.0027 µM with SK potassium channels (ref Chen et al., 2000, read-out: IC50, block of SK channels). Besides, in data set [1] (0.5 μM carbachol), the “Hill slope of inhibition curve” value turned out to be 1.47 ± 0.46. For the same compound, in data set [1] (setting [2]), the “Fractional inhibition” value is given as 0.98 ± 0.01.

For the compound `CCCCCCCCCCCCC/C=C/[C@@H](O)[C@@H](N)CO` [d-erthyro-sphingosine], the “Relaxation response of trachea” value with mouse trachea (8.1 μM) is recorded as 14.9 ± 6.0.

With `Cc1cc(=N)c2ccccc2n1CCCCCCCCCCn1c(C)cc(=N)c2ccccc21.Cl.Cl` [dequalinium chloride, 1-[10-(4-imino-2-methyl-1,4-dihydroquinolin-1-yl)decyl]-2-methyl-1,4-dihydroquinolin-4-imine dihydrochloride], the IC50 was 0.27 µM in data set [1]; 1.5 µM in the data set on SK potassium channels (ref Castle et al., 1993, Dunn, 1994, read-out: IC50, block of SK potassium channels); 0.19 µM in the data set on CNG1; 2.4 µM with CNG2. For the same compound, the “Hill slope of inhibition curve” value in data set [1] (0.5 μM carbachol) is listed as 0.90 ± 0.29. Further, the “Fractional inhibition” value in data set [1] (setting [2]) turned out to be 0.99 ± 0.003.

As for `Cc1cc(N)c2ccccc2[n+]1CCCCCCCCCC[n+]1c(C)cc(N)c2ccccc21.[Cl-].[Cl-]` [dequalinium chloride, 1-[10-(4-imino-2-methyl-1,4-dihydroquinolin-1-yl)decyl]-2-methyl-1,4-dihydroquinolin-4-imine dihydrochloride], the LD50 (in general, the dose at which mortality reaches 50%) in the data set on mouse (intraperitoneal administration) is 18.3 mg/kg; in the data set on mouse (oral administration), 300 mg/kg.

For the compound `CC(Cc1ccc(O)c(O)c1)C(C)Cc1ccc(O)c(O)c1` (stereo not drawn) [nordihydroguaiaretic acid], in the data set on mouse trachea (25 μM), the “Relaxation response of trachea” value was found to be 12.4 ± 8.5.

With “Apamin: peptide blocker of SK channels (CNCKAPETALCARRCQQH; not fully specified (C-terminus, bridges); cysteine pairing not given here; UniProt P01500 28-45, looked up)”, in the data set on mouse trachea (100 nM, 0.5 μM carbachol), the “Relaxation of ASM contractions” value is “did not relax ASM contractions” and the “Relaxation response of trachea, single dose” value is −15 ± 7.
